Read-outs that look alike come from different tables or passages of the source.
Legend:
[1] = background statement; cited from earlier work
[2] = Degradation of Radiesse calcium hydroxyapatite filler injected into porcine samples (histology of punch biopsy); settings: for dissolution of calcium hydroxyapatite in the samples: 24 hours after treatment, histology
Method: In a prospective, single-center clinical trial, 12 porcine samples (pieces of fresh pork shoulder) were injected with Radiesse®, with volumes ranging from 0.4 to 0.8 mL.
The samples were then randomized to three treatment groups: topical sodium metabisulfite (25% (w/v) SMB, formulated in petrolatum jelly: about 1-2 grams SMB applied topically to each site on the skin, 25% (w/v) sodium metabisulfite in 120 ml gel) application with occlusion, intralesional injection of about 0.2 mL of sodium thiosulfate solution (STS, concentration 12.5 g/50 mL, i.e., 0.25 g/mL or 25% (w/v)), or both. The volume ratio of Radiesse:STS solution ranged from 2:1 to 4:1. In the control group, samples were not treated after the Radiesse® injection.
(§1) Twenty-four hours after treatment, a 4-mm punch biopsy was obtained and processed for histology to evaluate the presence, absence, or degradation of calcium hydroxyapatite (FIGS. 1A-1D). A blinded, board-certified dermatopathologist read the samples and determined the amount of calcium present in each sample.

[3] = Degradation of Radiesse calcium hydroxyapatite filler injected into human skin samples (histology of punch biopsy); settings: for dissolution of calcium hydroxyapatite in the samples: 24 hours after treatment, histology
Method: Human skin samples (two living skin samples taken from living tissue in each group) were injected with 0.4 mL Radiesse®.
The samples were then randomized to three treatment groups: topical sodium metabisulfite (25% (w/v) SMB, formulated in petrolatum jelly, about 1-2 grams SMB applied topically to each site on the skin) application with occlusion, intralesional injection of about 0.4-0.8 mL sodium thiosulfate solution (STS, concentration 12.5 g/50 mL i.e., 0.25 g/mL), or both. In the control group, samples were not treated after the Radiesse® injection.
as §1, with “1E-1F).” for “1A-1D).”

[4] = 1-2 h post-STS injection
Method: In the prospective histology study, 3 patients received Radiesse® injections (12-20 injections/patient) followed by intralesional STS injection (STS, concentration 12.5 g/50 mL, i.e., 0.25 g/mL) in the abdomen/arm prior to abdominoplasty/brachioplasty. Patients received various Radiesse:STS solution volume ratios ranging from 1:1 to 1:2.5, including patient 1: 0.5 mL CaHA and 0.5 mL STS per site (volume ratio of CaHA:STS is 1:1); patient 2: 0.2 mL CaHA and 0.5 mL STS per site (volume ratio of CaHA:STS is 1:2.5); patient 3: 0.15 mL CaHA and 0.3 mL STS per site (volume ratio of CaHA:STS is 1:2). Tissue was harvested about 1-2 h after STS injection, and a 4-mm punch biopsy was assessed for the presence of CaHA (using hematoxylin-eosin sections).
(§2) At visit 1, deep CaHA nodules were injected using a 32-gauge half inch needle with STS (STS, concentration 12.5 g/50 mL, i.e., 0.25 g/mL; 2 injections; 0.3 mL total). At visit 2 (about 3-4 weeks after visit 1), the patient received subsequent injections using a 32-gauge half inch needle on a luer lock syringe of STS (0.3 mL total) to superficial CaHA nodules.

[5] = Method: as §2
[6] = remark: listed apart in the source
Method: A filler composition comprising CaHA and HA (hyaluronic acid) was used in a subject. 0.4 ml of CaHA was mixed with 0.4 ml of a highly cohesive HA filler and injected into the volar surface of a human forearm. 0.4 ml of intralesional (IL) STS was injected intralesionally into the treated area. 4 hours after treatment, a 5-mm punch biopsy was obtained. H &E was used to evaluate the presence, absence, or degradation of calcium hydroxyapatite and hyaluronic acid. A blinded, board-certified dermatopathologist read the samples and determined the amount of calcium present in each sample.

[7] = over the next 4 days or so after visit 1

Q: For `O=C(O)CN(CCN(CC(=O)O)CC(=O)O)CC(=O)O` [EDTA, ethylenediaminetetraacetic acid], which “ability to dissolve / reduce calcium hydroxyapatite” value [1] is on record?
A: unsuccessful

Q: What does the source list for `O=S([O-])S(=O)(=O)[O-].[Na+].[Na+]` [SMB, sodium metabisulfite]?
A: % of calcium hydroxyapatite degraded 24 hrs after treatment [2]: ~50%; dissolution of calcium hydroxyapatite in the samples ([2]; porcine samples): reduced, but did not entirely clear; effects on collagen or surrounding structures [3]: no apparent deleterious effects; dissolution of calcium hydroxyapatite in the samples ([3]; human skin samples): reduced, but did not entirely clear

Q: What does the source list for `O=S([O-])([O-])=S.[Na+].[Na+]` [STS, sodium thiosulfate]?
A: % of calcium hydroxyapatite degraded 24 hrs after treatment ([2]; porcine samples, 0.4-0.8 mL Radiesse, STS 25% (w/v) about 0.2 mL intralesional, SMB 25% (w/v) topical with occlusion, 4-mm punch biopsy): 100%; dissolution of calcium hydroxyapatite in the samples ([2]; porcine samples): completely dissolved; % of calcium hydroxyapatite degraded 24 hrs after treatment ([3]; human skin samples, 0.4 mL Radiesse, STS 0.25 g/mL about 0.4-0.8 mL intralesional, SMB 25% (w/v) topical with occlusion, 4-mm punch biopsy): 100%; dissolution of calcium hydroxyapatite in the samples ([3]; human skin samples): completely dissolved; effects on collagen or surrounding structures ([3]; human tissue, intralesional STS and/or topical SMB): no apparent deleterious effects; CaHA dissolution in histologic analyses ([4]; all human tissue samples, CaHA:STS volume ratio 1:1 to 1:2.5): markedly dissolved; CaHA decrease ([4]; human tissue samples): no less than 70%; time until burning sensation resolved ([5]; after immediate ice application): ≤ 1 min; burning sensation upon injection, 10-point pain scale ([5]; both visits): 5-6; erythema [5, 7]: concomitant reduction in erythema; nodule sizes (patient reported) [5, 7]: progressive reduction in nodule sizes; effect on deep nodules ([5]; visit 1, first STS injection, 0.3 mL total, 0.25 g/mL): immediate softening; time until superficial nodules softened and became semi-fluctuant ([5]; visit 2, STS 0.3 mL total): 1 to 2 min; reduction of the amount of calcium phosphate tissue filler ([6]; about 24 hours after administration): about 100%; effects on collagen or surrounding structures ([6]; human tissue, intralesional STS): no apparent deleterious effects; dissolution of CaHA in a mixture of CaHA and HA ([6]; reduced time period of 4 hours): completely dissolve; dissolution of calcium hydroxyapatite in the sample ([6]; twenty-four hours after intralesional STS injection, 0.4 ml STS, 0.4 ml CaHA + 0.4 ml HA): completely dissolved

Q: For hyaluronidase, which “ability to dissolve / reduce calcium hydroxyapatite” value [1] is on record?
A: cannot effectively dissolve

Reference: patent US20190269721A1, “METHODS AND COMPOSITIONS FOR DEGRADING CALCIUM PHOSPHATE AND FOR TREATING CALCIFICATION DISORDERS” (MERZ NORTH AMERICA, INC., priority 2016, published 2019)
